From US20040009485A1, “Cellular arrays for the identification of altered gene expression” (priority 2002, published 2004)

Test system: LuxArray 1.04 E. coli strains (luxCDABE gene fusions)
Assay: LuxArray 1.04 limonene stress of the reporter array in liquid culture
Type: cell-based
Conditions: for number of gene fusions upregulated by 2 fold or more / upregulation of gene fusion: 80% saturated limonene in LB; for number of gene fusions upregulated by 2 fold or more: LuxArray 1.04 (849 fusions)
Description: Microplates from −80° C. containing the LuxArray 1.04 E. coli strains were thawed and used to inoculate 100 μl LB medium supplemented with 100 μg/ml ampicillin in Costar#3595 flat bottomed 96-well microplates. Following overnight growth at 37° C., the plates were visually examined and any wells with little or no turbidity were recorded. Then these cultures were diluted by transfer of 15 μl to 135 μl LB medium in Costar #3595, flat bottom 96-well microplates and were moderately swirl shaken on an IKA Schuttler MTS 4 shaker at setting 400 for two hrs at 37° C. in a humidified box. Twenty μl of each these actively growing cultures were transferred to the corresponding well in sets of three microplates, one containing 80 μl of LB medium, another containing 80 μl of LB medium saturated with limonene at room temperature, and the third containing 40 μl of LB medium saturated with limonene and 40 μl of LB medium. An initial (zero time) reading was taken using an MLX microplate luminometer (Dynex) pre-warmed to 37° C. Then the plates were placed at 37° C. without shaking. Additional bioluminescent measurements were taken at 45, 90, and 135 minutes. To limit the number of microplates handled each day, LuxArray 1.04 microplates 1 to 5, microplates 6 to 10, microplates 11 to 15, and microplates […] were used on each of four different days.
The data were normalized to correct for growth-inhibition caused by limonene on the basis of each individual day that data was collected. The bioluminescence (RLU) of each individual culture for each day of experimentation under each of the three conditions, were added to determine the daily array total RLU. These were used to find a daily normalization factor (DNF) as follows:
DNF=Daily total array signal(time zero, LB control)/Daily total array signal(time x, condition y)
Each measurement from the corresponding day, time point, and condition was multiplied by DNF to yield a normalized signal. The data from wells that were scored to have little or no growth were not used in further analysis. The normalized data were analyzed with GeneSpring (Silicon Genetics) software, which averaged the signal from each of the duplicate cultures for each reporter gene fusion.
Thus, patterns of gene expression from the 80% saturated limonene in LB medium were further examined. […] These lists were examined and gene fusions with very low normalized RLU values (<0.012 RLU) at all conditions were eliminated. […] The designation of “>2X” is given for upregulation while “*” is listed if the expression was less than 2 fold increased. At 45 minutes, the expression of fourteen gene fusions was increased; none of these was increased 3 fold or higher. At 90 minutes, 37 gene fusions were induced; these included all but one of the gene fusions observed at 45 minutes. […] These were fusions of the luxCDABE reporter to the promoter regions of uhpT (3.8×), nirB (3.7×) and narK (3.6×). At 135 minutes, 39 gene fusions were induced, which included 13 fusions not observed at 45 or 90 minutes.

What does the source list for `C=C(C)[C@H]1CC=C(C)CC1` [limonene]?
upregulation of gene expression overall (40% saturated limonene in LB medium): little to no upregulation of gene expression; number of gene fusions upregulated by 2 fold or more (45 minutes): fourteen; number of gene fusions upregulated by 2 fold or more (90 minutes): 37 gene fusions; number of gene fusions upregulated by 2 fold or more (135 minutes): 39 gene fusions; upregulation of gene fusion (b0005 fusion, 45 minutes): * (“*” is listed if the expression was less than 2 fold increased); upregulation of gene fusion (b0005 fusion, 90 minutes): * (“*” is listed if the expression was less than 2 fold increased); upregulation of gene fusion (b0005 fusion, 135 minutes): >2X (The designation of “>2X” is given for upregulation); upregulation of gene fusion (b0123 (yacK) fusion, 45 minutes): * (“*” is listed if the expression was less than 2 fold increased); upregulation of gene fusion (b0314 (betT) fusion, 45 minutes): * (“*” is listed if the expression was less than 2 fold increased); upregulation of gene fusion (b0314 (betT) fusion, 90 minutes): >2X (The designation of “>2X” is given for upregulation); upregulation of gene fusion (b0314 (betT) fusion, 135 minutes): >2X (The designation of “>2X” is given for upregulation); upregulation of gene fusion (b0417 fusion, 45 minutes): * (“*” is listed if the expression was less than 2 fold increased); upregulation of gene fusion (b0417 fusion, 90 minutes): >2X (The designation of “>2X” is given for upregulation); upregulation of gene fusion (b0417 fusion, 135 minutes): >2X (The designation of “>2X” is given for upregulation); upregulation of gene fusion (b0422 (xseB) fusion, 45 minutes): * (“*” is listed if the expression was less than 2 fold increased); upregulation of gene fusion (b0422 (xseB) fusion, 90 minutes): >2X (The designation of “>2X” is given for upregulation); upregulation of gene fusion (b0422 (xseB) fusion, 135 minutes): * (“*” is listed if the expression was less than 2 fold increased); upregulation of gene fusion (b0572 fusion, 45 minutes): * (“*” is listed if the expression was less than 2 fold increased); upregulation of gene fusion (b0572 fusion, 90 minutes): >2X (The designation of “>2X” is given for upregulation); upregulation of gene fusion (b0572 fusion, 135 minutes): >2X (The designation of “>2X” is given for upregulation); upregulation of gene fusion (b0593 (entC) fusion, 45 minutes): * (“*” is listed if the expression was less than 2 fold increased); upregulation of gene fusion (b0593 (entC) fusion, 90 minutes): >2X (The designation of “>2X” is given for upregulation); upregulation of gene fusion (b0593 (entC) fusion, 135 minutes): >2X (The designation of “>2X” is given for upregulation); upregulation of gene fusion (b0839 (dacC) fusion, 45 minutes): * (“*” is listed if the expression was less than 2 fold increased); upregulation of gene fusion (b0839 (dacC) fusion, 90 minutes): >2X (The designation of “>2X” is given for upregulation); upregulation of gene fusion (b0839 (dacC) fusion, 135 minutes): >2X (The designation of “>2X” is given for upregulation); upregulation of gene fusion (b1188 (ycgB) fusion, 45 minutes): * (“*” is listed if the expression was less than 2 fold increased); upregulation of gene fusion (b1188 (ycgB) fusion, 90 minutes): >2X (The designation of “>2X” is given for upregulation); upregulation of gene fusion (b1188 (ycgB) fusion, 135 minutes): * (“*” is listed if the expression was less than 2 fold increased); upregulation of gene fusion (b1223 (narK) fusion, 45 minutes): * (“*” is listed if the expression was less than 2 fold increased); upregulation of gene fusion (b1223 (narK) fusion, 90 minutes): >2X (The designation of “>2X” is given for upregulation); upregulation of gene fusion (b1223 (narK) fusion, 135 minutes): >2X (The designation of “>2X” is given for upregulation); upregulation of gene fusion (b1676 (pykF) fusion, 45 minutes): >2X (The designation of “>2X” is given for upregulation); upregulation of gene fusion (b1676 (pykF) fusion, 90 minutes): >2X (The designation of “>2X” is given for upregulation); upregulation of gene fusion (b1676 (pykF) fusion, 135 minutes): >2X (The designation of “>2X” is given for upregulation); upregulation of gene fusion (b1872 (bisZ) fusion, 45 minutes): * (“*” is listed if the expression was less than 2 fold increased); upregulation of gene fusion (b1872 (bisZ) fusion, 90 minutes): >2X (The designation of “>2X” is given for upregulation); upregulation of gene fusion (b1872 (bisZ) fusion, 135 minutes): >2X (The designation of “>2X” is given for upregulation); upregulation of gene fusion (b1993 (cobU) fusion, 45 minutes): >2X (The designation of “>2X” is given for upregulation); upregulation of gene fusion (b1993 (cobU) fusion, 90 minutes): >2X (The designation of “>2X” is given for upregulation); upregulation of gene fusion (b1993 (cobU) fusion, 135 minutes): >2X (The designation of “>2X” is given for upregulation); upregulation of gene fusion (b2081 fusion, 45 minutes): >2X (The designation of “>2X” is given for upregulation); upregulation of gene fusion (b2081 fusion, 90 minutes): >2X (The designation of “>2X” is given for upregulation); upregulation of gene fusion (b2081 fusion, 135 minutes): * (“*” is listed if the expression was less than 2 fold increased); upregulation of gene fusion (b2237 (inaA) fusion, 45 minutes): * (“*” is listed if the expression was less than 2 fold increased); upregulation of gene fusion (b2237 (inaA) fusion, 90 minutes): >2X (The designation of “>2X” is given for upregulation); upregulation of gene fusion (b2237 (inaA) fusion, 135 minutes): >2X (The designation of “>2X” is given for upregulation); upregulation of gene fusion (b2322 fusion, 45 minutes): * (“*” is listed if the expression was less than 2 fold increased); upregulation of gene fusion (b2322 fusion, 90 minutes): >2X (The designation of “>2X” is given for upregulation); upregulation of gene fusion (b2322 fusion, 135 minutes): >2X (The designation of “>2X” is given for upregulation); upregulation of gene fusion (b2367 (emrY) fusion, 45 minutes): * (“*” is listed if the expression was less than 2 fold increased); upregulation of gene fusion (b2367 (emrY) fusion, 90 minutes): >2X (The designation of “>2X” is given for upregulation); upregulation of gene fusion (b2367 (emrY) fusion, 135 minutes): * (“*” is listed if the expression was less than 2 fold increased); upregulation of gene fusion (b2451 fusion, 45 minutes): * (“*” is listed if the expression was less than 2 fold increased); upregulation of gene fusion (b2451 fusion, 90 minutes): >2X (The designation of “>2X” is given for upregulation)
